Laboratory results: patent EP4603105A1, “PHARMACEUTICAL COMPOSITION CONTAINING CYCLIC COMPOUND HAVING SELECTIVE KRAS INHIBITORY EFFECT AGAINST HRAS AND NRAS” (CHUGAI SEIYAKU KABUSHIKI KAISHA, priority 2022, dated 2024)

Assays:
[1] = target: GDP-bound NRAS wild-type protein (Homo sapiens, UniProt P01111); experiment: Binding to NRAS by surface plasmon resonance (SPR), KD and KD ratio to KRAS; conditions: ratio of KD value for GDP-bound NRAS wild-type protein to KD value for KRAS (SPR)
Method in brief: (§1)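 Recombinant RAS proteins bearing a biotinylated Avi tag and loaded with GDP served as the captured ligand, recaptured fresh every cycle. Binding responses were referenced to an uncoated surface and a buffer-only blank cycle. Dissociation constants were obtained by 1:1 model fitting at 30°C.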

[2] = target: HRAS wild-type protein (Homo sapiens, UniProt P01112); experiment: Binding to HRAS by surface plasmon resonance (SPR), KD and KD ratio to KRAS; conditions: ratio of KD value for HRAS wild-type protein to KD value for KRAS (SPR)
Chain of HRAS wild-type protein (P01112 whole entry): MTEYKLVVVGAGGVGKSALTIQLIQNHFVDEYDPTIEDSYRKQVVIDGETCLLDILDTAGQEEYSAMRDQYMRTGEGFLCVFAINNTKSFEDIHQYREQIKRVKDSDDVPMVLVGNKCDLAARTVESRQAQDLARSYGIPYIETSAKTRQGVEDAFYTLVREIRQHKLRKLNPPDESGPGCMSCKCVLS
Method in brief: as §1

[3] = tested on: human lung cancer strain NCI-H441; assay type: cell-based
Method in brief: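 Signal came from […] measured per well once the reagent was added. Beforehand, cells were cultured at 37°C and 5% carbon dioxide on a compound series serially diluted in dimethyl sulfoxide.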

Chain of GDP-bound NRAS wild-type protein (P01111 whole entry): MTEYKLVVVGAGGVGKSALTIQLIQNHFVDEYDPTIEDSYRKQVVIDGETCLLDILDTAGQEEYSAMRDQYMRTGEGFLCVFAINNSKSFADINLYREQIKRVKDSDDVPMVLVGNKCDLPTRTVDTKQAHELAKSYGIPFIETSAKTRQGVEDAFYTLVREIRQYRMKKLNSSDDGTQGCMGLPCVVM

SMILES	IC50 [3]	NRAS /KRAS [1]	HRAS /KRAS [2]
CCCOC[C@H]1C(=O)N[C@@H]([C@@H](C)CC)C(=O)N(C)CC(=O)N(C)[C@H]2C/C=C\CCN(C2=O)[C@@H](Cc2ccc(C(F)(F)F)cc2)C(=O)N(C)CC(=O)N[C@@H](CCc2cc(F)c(C(F)(F)F)c(F)c2)C(=O)N2C[C@H](OCC)C[C@H]2C(=O)NC2(CCC2)C(=O)N(C)[C@@H](C2CCCC2)C(=O)N(C)[C@H](C(=O)N(C)CCC)CC(=O)N1C [PP1668]	5.3 nM	A (a compound having 10 or more and less than 20 is denoted as A)	A (a compound having 10 or more and less than 20 is denoted as A)
CCCN(C)C(=O)[C@@H]1CC(=O)N(C)[C@@H](CC)C(=O)N[C@@H]([C@@H](C)CC)C(=O)N(C)CC(=O)N(C)[C@H]2C/C=C\CCN(C2=O)[C@@H](Cc2ccc(C(F)(F)F)cc2)C(=O)N(C)CC(=O)N[C@@H](CCc2cc(F)c(C(F)(F)F)c(F)c2)C(=O)N2C[C@H](OCC)C[C@H]2C(=O)NC2(CC(C)(C)C2)C(=O)N(C)[C@@H](C2CCCC2)C(=O)N1C [PP1670]	6.7 nM	A (a compound having 10 or more and less than 20 is denoted as A)	A (a compound having 10 or more and less than 20 is denoted as A)
CCCN(C)C(=O)[C@@H]1CC(=O)N(C)[C@@H](COC)C(=O)N[C@@H]([C@@H](C)CC)C(=O)N(C)CC(=O)N(C)[C@H]2C/C=C\CCN(C2=O)[C@@H](Cc2ccc(C(F)(F)F)cc2)C(=O)N(C)CC(=O)N[C@@H](CCc2cc(F)c(C(F)(F)F)c(F)c2)C(=O)N2C[C@H](OCC)C[C@H]2C(=O)NC2(CC(C)(C)C2)C(=O)N(C)[C@@H](C2CCCC2)C(=O)N1C [PP1672]	6 nM	A (a compound having 10 or more and less than 20 is denoted as A)	A (a compound having 10 or more and less than 20 is denoted as A)
CCCOC[C@H]1C(=O)N[C@@H]([C@@H](C)CC)C(=O)N(C)CC(=O)N(C)[C@H]2C/C=C\CCN(C2=O)[C@@H](Cc2ccc(C(F)(F)F)cc2)C(=O)N(C)CC(=O)N[C@@H](CCc2cc(F)c(C(F)(F)F)c(F)c2)C(=O)N2C[C@H](OCC)C[C@H]2C(=O)NC2(CC(C)(C)C2)C(=O)N(C)[C@@H](C2CCCC2)C(=O)N(C)[C@H](C(=O)N(C)CCC)CC(=O)N1C [PP1673]	6 nM	A (a compound having 10 or more and less than 20 is denoted as A)	A (a compound having 10 or more and less than 20 is denoted as A)
CCO[C@@H]1C[C@H]2C(=O)NC3(CC(C)(C)C3)C(=O)N(C)[C@@H](C3CCCC3)C(=O)N(C)[C@H](C(=O)N(C)C)CC(=O)N(C)[C@@H](C)C(=O)N[C@@H]([C@@H](C)CC)C(=O)N(C)CC(=O)N(C)[C@H]3C/C=C\CCN(C3=O)[C@@H](Cc3ccc(C(F)(F)F)cc3)C(=O)N(C)CC(=O)N[C@@H](CCc3ccc(C(F)(F)F)c(OC)c3)C(=O)N2C1 [PP1674]	5.1 nM	A (a compound having 10 or more and less than 20 is denoted as A)	A (a compound having 10 or more and less than 20 is denoted as A)
CCO[C@@H]1C[C@H]2C(=O)NC3(CC(C)(C)C3)C(=O)N(C)[C@@H](C3CCCC3)C(=O)N(C)[C@H](C(=O)N(C)CC)CC(=O)N(C)[C@@H](COC)C(=O)N[C@@H]([C@@H](C)CC)C(=O)N(C)CC(=O)N(C)[C@H]3C/C=C\CCN(C3=O)[C@@H](Cc3ccc(C(F)(F)F)cc3)C(=O)N(C)CC(=O)N[C@@H](CCc3ccc(C(F)(F)F)c(OC)c3)C(=O)N2C1 [PP1679]	3.1 nM	A (a compound having 10 or more and less than 20 is denoted as A)	A (a compound having 10 or more and less than 20 is denoted as A)
CC[C@H](C)[C@@H]1NC(=O)[C@H](CC2CCC2)N(C)C(=O)C[C@@H](C(=O)N(C)C)N(C)C(=O)[C@H](C2CCCC2)N(C)C(=O)C2(CC(C)(C)C2)NC(=O)[C@@H]2C[C@H](C)CN2C(=O)[C@H](CCc2cc(F)c(C(F)(F)F)c(F)c2)NC(=O)CN(C)C(=O)[C@H](Cc2ccc(C(F)(F)F)cc2)N2CC/C=C\C[C@@H](C2=O)N(C)C(=O)CN(C)C1=O [PP1684]	7.7 nM	A (a compound having 10 or more and less than 20 is denoted as A)	A (a compound having 10 or more and less than 20 is denoted as A)
C#CC[C@H]1C(=O)N[C@@H]([C@@H](C)CC)C(=O)N(C)CC(=O)N(C)[C@H]2C/C=C\CCN(C2=O)[C@@H](Cc2ccc(C(F)(F)F)cc2)C(=O)N(C)CC(=O)N[C@@H](CCc2cc(F)c(C(F)(F)F)c(F)c2)C(=O)N2C[C@H](F)C[C@H]2C(=O)NC2(CC(C)(C)C2)C(=O)N(C)[C@@H](C2CCCC2)C(=O)N(C)[C@H](C(=O)N(C)CC)CC(=O)N1C [PP1691]	3.1 nM	A (a compound having 10 or more and less than 20 is denoted as A)	A (a compound having 10 or more and less than 20 is denoted as A)
C#CC[C@H]1C(=O)N[C@@H]([C@@H](C)CC)C(=O)N(C)CC(=O)N(C)[C@H]2C/C=C\CCN(C2=O)[C@@H](Cc2ccc(C(F)(F)F)cc2)C(=O)N(C)CC(=O)N[C@@H](CCc2cc(F)c(C(F)(F)F)c(F)c2)C(=O)N2C[C@H](F)C[C@H]2C(=O)NC2(CC(C)(C)C2)C(=O)N(C)[C@@H](C2CCCC2)C(=O)N(C)[C@H](C(=O)N(C)CCC)CC(=O)N1C [PP1692]	4.3 nM	AA (a compound having 20 or more is denoted as AA)	A (a compound having 10 or more and less than 20 is denoted as A)

The next compounds have a lower IC50 [3] than those just listed; values first:

IC50 [3]	SMILES	NRAS /KRAS [1]	HRAS /KRAS [2]
3 nM	CCO[C@@H]1C[C@H]2C(=O)NC3(CC(C)(C)C3)C(=O)N(C)[C@@H](C3CCCC3)C(=O)N(C)[C@H](C(=O)N(C)CC)CC(=O)N(C)[C@@H](COC)C(=O)N[C@@H]([C@@H](C)CC)C(=O)N(C)CC(=O)N(C)[C@H]3C/C=C\CCN(C3=O)[C@@H](Cc3ccc(C(F)(F)F)cc3)C(=O)N(C)CC(=O)N[C@@H](CCc3cc(F)c(C(F)(F)F)c(F)c3)C(=O)N2C1 [PP1671]	A (a compound having 10 or more and less than 20 is denoted as A)	A (a compound having 10 or more and less than 20 is denoted as A)
3 nM	CCO[C@@H]1C[C@H]2C(=O)NC3(CC(C)(C)C3)C(=O)N(C)[C@@H](C3CCCC3)C(=O)N(C)[C@H](C(=O)N(C)C)CC(=O)N(C)[C@@H](CC(F)(F)F)C(=O)N[C@@H]([C@@H](C)CC)C(=O)N(C)CC(=O)N(C)[C@H]3C/C=C\CCN(C3=O)[C@@H](Cc3ccc(C(F)(F)F)cc3)C(=O)N(C)CC(=O)N[C@@H](CCc3ccc(C(F)(F)F)c(OC)c3)C(=O)N2C1 [PP1675]	A (a compound having 10 or more and less than 20 is denoted as A)	B (a compound having 3 or more and less than 10 is denoted as B)
2.7 nM	CCCN(C)C(=O)[C@@H]1CC(=O)N(C)[C@@H](CC(F)F)C(=O)N[C@@H]([C@@H](C)CC)C(=O)N(C)CC(=O)N(C)[C@H]2C/C=C\CCN(C2=O)[C@@H](Cc2ccc(C(F)(F)F)cc2)C(=O)N(C)CC(=O)N[C@@H](CCc2cc(F)c(C(F)(F)F)c(F)c2)C(=O)N2C[C@H](F)C[C@H]2C(=O)NC2(CC(C)(C)C2)C(=O)N(C)[C@@H](C2CCCC2)C(=O)N1C [PP1687]	A (a compound having 10 or more and less than 20 is denoted as A)	A (a compound having 10 or more and less than 20 is denoted as A)
2.6 nM	CC[C@H](C)[C@@H]1NC(=O)[C@H](CC(F)(F)F)N(C)C(=O)C[C@@H](C(=O)N(C)C)N(C)C(=O)[C@H](C2CCCC2)N(C)C(=O)C2(CC(C)(C)C2)NC(=O)[C@@H]2C[C@H](C)CN2C(=O)[C@H](CCc2cc(F)c(C(F)(F)F)c(F)c2)NC(=O)CN(C)C(=O)[C@H](Cc2ccc(C(F)(F)F)cc2)N2CC/C=C\C[C@@H](C2=O)N(C)C(=O)CN(C)C1=O [PP1682]	AA (a compound having 20 or more is denoted as AA)	A (a compound having 10 or more and less than 20 is denoted as A)
2.5 nM	CCC[C@H]1C(=O)N[C@@H]([C@@H](C)CC)C(=O)N(C)CC(=O)N(C)[C@H]2C/C=C\CCN(C2=O)[C@@H](Cc2ccc(C(F)(F)F)cc2)C(=O)N(C)CC(=O)N[C@@H](CCc2cc(F)c(C(F)(F)F)c(F)c2)C(=O)N2C[C@@H](C)C[C@H]2C(=O)NC2(CC(C)(C)C2)C(=O)N(C)[C@@H](C2CCCC2)C(=O)N(C)[C@H](C(=O)N(C)C)CC(=O)N1C [PP1683]	A (a compound having 10 or more and less than 20 is denoted as A)	A (a compound having 10 or more and less than 20 is denoted as A)
1.5 nM	CC[C@H](C)[C@@H]1NC(=O)[C@H](CC(F)(F)F)N(C)C(=O)C[C@@H](C(=O)N(C)C)N(C)C(=O)[C@H](C2CCCC2)N(C)C(=O)C2(CC(C)(C)C2)NC(=O)[C@@H]2C[C@@H](F)CN2C(=O)[C@H](CCc2cc(F)c(C(F)(F)F)c(F)c2)NC(=O)CN(C)C(=O)[C@H](Cc2ccc(C(F)(F)F)cc2)N2CC/C=C\C[C@@H](C2=O)N(C)C(=O)CN(C)C1=O [PP1688]	A (a compound having 10 or more and less than 20 is denoted as A)	A (a compound having 10 or more and less than 20 is denoted as A)
1.4 nM	CCC[C@H]1C(=O)N[C@@H]([C@@H](C)CC)C(=O)N(C)CC(=O)N(C)[C@H]2C/C=C\CCN(C2=O)[C@@H](Cc2ccc(C(F)(F)F)cc2)C(=O)N(C)CC(=O)N[C@@H](CCc2cc(F)c(C(F)(F)F)c(F)c2)C(=O)N2C[C@H](F)C[C@H]2C(=O)NC2(CC(C)(C)C2)C(=O)N(C)[C@@H](C2CCCC2)C(=O)N(C)[C@H](C(=O)N(C)C)CC(=O)N1C [PP1689]	A (a compound having 10 or more and less than 20 is denoted as A)	B (a compound having 3 or more and less than 10 is denoted as B)
